Structures are written as SMILES. ≈ marks a conversion by molar mass, not a printed value. Read-outs that look alike come from different tables or passages of the source.

Data set [1] concerns the target α-glucosidase. The note with it: literature ref 12; read-out: α-glucosidase inhibition activity IC50; cited from earlier work.
The subject of data set [2] is M. abscessus (Mab). In words: M. abscessus (Mab) inhibition. Format: cell-based, Mycobacterium abscessus. The note with it: Table 10; pure compounds.
The subject of data set [3] is replicating stage M. tuberculosis (Mtb). Description: MIC against replicating Mtb. The note with it: for MIC: Mycobacterium tuberculosis. Format: cell-based, Mycobacterium tuberculosis.
Data set [4] deals with MRSA. The note with it: literature ref 20; cited from earlier work.
The test system of data set [5] is S. typhimurium. The note with it: reported in literature; cited from earlier work.
Data set [6] relates to S. pyogenes. The note with it: reported in literature; cited from earlier work.
The test system of data set [7] is murine macrophage cell line J774. Description: Cytotoxicity assay with J774 macrophages. The note with it: for IC50: Mus musculus.
In data set [8] the test system is E. co/i. The note with it: reported in literature; cited from earlier work.
The test system of data set [9] is C. albicans. The note with it: reported in literature; cited from earlier work.
In data set [10] the test system is S. aureus. The note with it: reported in literature; cited from earlier work.
In data set [11] the test system is zebrafish embryos. The note with it: reported in literature; cited from earlier work.
The target of data set [12] is acetylcholinesterase (AchE) (Homo sapiens, UniProt P22303). The note with it: literature ref 13; read-out: IC50 against acetylcholinesterase (AchE); cited from earlier work.
Where [13] appears, read: Table 10, pure compounds, replicating Mtb, read-out: MIC (Mtb-rep).

Chain of acetylcholinesterase (AchE) (P22303 32-614): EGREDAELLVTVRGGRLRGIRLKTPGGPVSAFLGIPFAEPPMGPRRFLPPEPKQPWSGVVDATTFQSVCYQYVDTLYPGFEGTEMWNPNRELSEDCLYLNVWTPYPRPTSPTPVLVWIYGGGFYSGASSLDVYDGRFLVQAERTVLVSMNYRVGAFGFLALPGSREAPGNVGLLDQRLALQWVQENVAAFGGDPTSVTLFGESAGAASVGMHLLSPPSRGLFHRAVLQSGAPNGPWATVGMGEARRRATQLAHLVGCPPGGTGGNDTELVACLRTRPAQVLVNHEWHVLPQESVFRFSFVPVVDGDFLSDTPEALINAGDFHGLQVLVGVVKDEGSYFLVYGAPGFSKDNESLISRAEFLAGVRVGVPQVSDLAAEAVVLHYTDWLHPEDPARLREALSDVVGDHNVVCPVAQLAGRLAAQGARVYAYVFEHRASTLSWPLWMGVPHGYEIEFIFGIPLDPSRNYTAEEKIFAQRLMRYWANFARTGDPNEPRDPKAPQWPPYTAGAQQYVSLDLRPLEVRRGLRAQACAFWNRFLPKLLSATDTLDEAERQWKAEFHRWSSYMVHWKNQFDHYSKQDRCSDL

On to `C[C@@H]1CCC[C@H](O)CCCc2cc(O)cc(O)c2C(=O)O1` [(3R,7R)-7-hydroxy-de-O-methyllasiodiplodin], for which, in data set [1], the IC50 (in general, the concentration at which inhibition is half-maximal) was 25.8 µM.
In the case of `COc1cc2c(c(O)c1C)COC2=O` [EtOAc-F-8-3, 4-hydroxy-6-methoxy-5-methyl-1(3H)-isobenzofuranone], in data set [2], the M. abscessus stood at 200 µg/mL. In [3] (setting [13]), the MIC (as a rule, the lowest concentration that inhibits growth of the organism) turned out to be 200 µg/mL (≈ 1030 µM).
Consider `CCC(C)/C=C(C)/C=C/C1=CC2=C(Cl)C(=O)C(C)(OC(C)=O)C(=O)C2=CN1CCCC(=O)O` (stereo not drawn) [Isochromophione IX, isochromophilone IX], for which, in data set [4], the “MIC, inhibition against MRSA” value is 50 µg/mL (≈ 105 µM).
For `CC[C@H](C)/C=C(C)/C=C/C1=CC2=C(Cl)C(=O)[C@](C)(OC(C)=O)C(=O)C2=CN1CCO` [EtOAc-O-7, Isochromophilone VI], in data set [5], the “activity against S. typhimurium” value was “bioactivity”. In data set [6], the “activity against S. pyogenes” value is “bioactivity”. Besides, the “selectivity index (SI)” value in data set [3] (IC50 (J774) over MIC (Mtb)) stood at 10.78. Also, the MIC in [3] (setting [13]) is 18.6 µg/mL (≈ 42.9 µM); in data set [3] (text b208, FIG. 11, replicating Mtb, read-out: MIC), 18 µg/mL (≈ 41.5 µM). Moreover, the “bioactivity against replicating Mtb (in words)” value in data set [3] (conclusion b210) is reported as “promising bioactivity”. Besides, the IC50 in data set [7] (J774) was 200 µg/mL (≈ 461 µM); in [7] (J774, read-out: IC50 (J774)), around 200 µg/mL (≈ 461 µM). In data set [7] (conclusion b210, J774), the “cytotoxicity (in words)” value is given as “low cytotoxicity”.
Take `COc1cc(CC(=O)CO)c(C=O)c(O)c1C` [EtOAc-M-6-3]: the M. abscessus in [2] came to 100 µg/mL. The MIC in data set [3] (setting [13]) turned out to be 50 µg/mL (≈ 210 µM).
In the case of `C/C=C(/C(=O)O)N1C(=O)C=C(C)C1=O` [EtOAc-G-4, pencolide], the “activity against S. typhimurium” value in [5] was “inhibition”. For the same molecule, in [8], the “inhibition of E. co/i” value is listed as “inhibition”. Moreover, in [9], the “inhibition of C. albicans” value is on record as “inhibition”. In data set [2], this molecule displayed a M. abscessus of 100 µg/mL. Also, the “inhibition of S. aureus” value in data set [10] is “inhibition”. The “activity against S. pyogenes” value in data set [6] was “inhibition”. In addition, the MIC in data set [3] (setting [13]) turned out to be 50 µg/mL (≈ 256 µM).
On to `C[C@@H]1CC(=O)CCCCCc2cc(O)cc(O)c2C(=O)O1` [(3R)-5-oxo-de-O-methyllasiodiplodin], for which the IC50 in [1] was 54.6 µM.
In the case of `CC[C@H](C)/C=C(C)/C=C/C(=O)Cc1cc(O)c(C)c(O)c1C=O` [EtOAc-D, 2,4-dihyroxy-6-(5,7-dimethyl-2-oxo-trans-3-trans-5-nonadienyl)-3-methylbenzaldehyde], the “effect on exposed zebrafish embryos” value in data set [11] is “severely impaired heart morphology and curved trunk”. For the same molecule, the MIC in data set [3] (read-out: MIC (Mtb-rep)) is around 50 µg/mL (≈ 158 µM). Also, in data set [7] (J774, read-out: IC50 (J774)), the IC50 is around 200 µg/mL (≈ 632 µM).
For `COc1ccc(-c2cc3c(c(=O)o2)C[C@]2(O)[C@@]4(C)CCC(=O)C(C)(C)[C@]4(O)CC[C@@]2(C)O3)cc1` [terreulactone C], the IC50 in data set [12] was 0.028 µM.

Source of the values: patent US11986459B2, “Methods for the treatment of Mycobacterium infections” (University of South Florida, priority 2020, dated 2024).
